{"source": "patent US4563477A", "about": "“Process for the preparation of alpha-(N-pyrrolyl)-derivative acids, the salts and esters thereof; alpha-(N-pyrrolyl)-phenylacetic acids, the esters thereof, pharmaceutical compositions containing them and therapeutical applications thereof” (Antibioticos, S.A., priority 1982, dated 1986)", "data": [{"test_system": "ADP induced platelet aggregation", "assay": "\"Ex vivo\" platelet anti-aggregation activity in rats (ADP induced platelet aggregation, Born aggregometer)", "set-up": "species or system Wistar rats, ITA 177 SPF", "conditions": "100 mg/kg p.o., n = 5, blood drawn 5 hours after administration, control 86.4 ± 2.15, Duncan Kramer test p < 0.05", "protocol": "(§1) Acetylsalicyclic acid at a dose level of 100 mg/kg p.o. was used as standard.\n(§2) The products to be tested were administered at the maximum dose of 200 mg/kg, p.o.\n(§3) Both the standard and the products were administered dissolved or suspended in a 10 ml/kg Tween solution.\n(§4) The animals were fasted during the test and for 17 hours prior thereto, but had water \"ad libitum\".\n(§5) The % aggregation was calculated measuring the difference in mm in the recorder between the initial aggregation stage and the height of the specimen curve 6 minutes after the onset of aggregation.\n(§6) This figure, therefore, is calculated as a percentage, taking as 100% the figure in mm of the difference between the platelet rich plasma (prp) and the platelet poor plasma (ppp) obtained in balancing the apparatus for the specimen under examination.\n(§7) \"Ex vivo\" platelet anti-aggregation activity in rats", "units": {"Platelet aggregation %": "%"}, "values": [{"smiles": "O=C(O)C(c1ccccc1)n1cccc1", "note": "(racemic) [DL(±)-alpha-(N-pyrrolyl)-phenylacetic acid]", "Platelet aggregation %": "25.3 ± 9.28"}, {"smiles": "O=C(O)Cn1cccc1", "note": "[Alpha-(N-pyrrolyl)-acetic acid]", "Platelet aggregation %": "63.1 ± 3.32"}, {"smiles": "CC(=O)Oc1ccccc1C(=O)O", "note": "[Acetylsalicylic acid, reference compound]", "Platelet aggregation %": "20.1 ± 1.49"}, {"smiles": "CCOC(=O)C(c1ccccc1)n1cccc1", "note": "(racemic) [Ethyl DL(±)-alpha-(N-pyrrolyl)-phenylacetate]", "Platelet aggregation %": "42.0 ± 2.58"}, {"smiles": "CCCCC1C(=O)N(c2ccccc2)N(c2ccccc2)C1=O", "note": "[Phenylbutazone, reference compound]", "Platelet aggregation %": "58.2 ± 7.35"}]}, {"test_system": "ADP induced platelet aggregation", "assay": "\"Ex vivo\" platelet anti-aggregation activity in rats (ADP induced platelet aggregation, Born aggregometer)", "set-up": "species or system Wistar rats, ITA 177 SPF", "conditions": "100 mg/kg p.o., n = 5, blood drawn 5 hours after administration, relative to control", "protocol": "as §1, §2, §3, §4, §5, §6, §7", "units": {"Platelet aggregation, % inhibition": "%"}, "values": [{"smiles": "O=C(O)C(c1ccccc1)n1cccc1", "note": "(racemic) [DL(±)-alpha-(N-pyrrolyl)-phenylacetic acid]", "Platelet aggregation, % inhibition": 70.7}, {"smiles": "O=C(O)Cn1cccc1", "note": "[Alpha-(N-pyrrolyl)-acetic acid]", "Platelet aggregation, % inhibition": 27.0}, {"smiles": "CC(=O)Oc1ccccc1C(=O)O", "note": "[Acetylsalicylic acid, reference compound]", "Platelet aggregation, % inhibition": 76.7}, {"smiles": "CCOC(=O)C(c1ccccc1)n1cccc1", "note": "(racemic) [Ethyl DL(±)-alpha-(N-pyrrolyl)-phenylacetate]", "Platelet aggregation, % inhibition": 51.4}, {"smiles": "CCCCC1C(=O)N(c2ccccc2)N(c2ccccc2)C1=O", "note": "[Phenylbutazone, reference compound]", "Platelet aggregation, % inhibition": 32.6}]}, {"test_system": "0.5% acetic acid induced contorsions in NMRI mice", "assay": "Peripheral analgesic activity: 0.5% acetic acid induced contorsions in NMRI mice", "assay_type": "in vivo", "conditions": "male NMRI mice, n = 10, 100 mg/kg p.o., 0.5% acetic acid i.p.", "protocol": "(§8) The experimental method consists of injecting an irritant, such as acetic acid, into the […] peritoneum and provoking obviously appreciable painful contorsions such as stretching of the rear paws and twisting of the dorso-abdominal muscles.\n(§9) The material used consisted of lots of NMRI mice bred in our SPF breeding centre under constant temperature and humidity conditions of 23°±0.5° C. and 70±5%.\n(§10) Standard: acetylsalicylic acid\n(§11) Vehicle: propylene glycol/water--40/60 v.\n(§12) Transparent plastic cages.\n(§13) With this material the mice were randomly distributed into groups of 10 animals. The test order and the treatment to be given to each group was also randomised. […]\n(§14) The control lot received the vehicle. As standard, acetylsalicylic acid at a dose level of 100 mg/kg, suspended in the same vehicle and administered p.o., was used.\n(§15) After 30 minutes, 0.25 ml per 20 g body weight of a 0.5% acetic acid solution was administered intraperitoneally.\n(§16) The number of painful contorsions were counted and, for evaluating the results, the means of the number of stretches of each lot were calculated and were expressed as inhibition percentages relative to the control, as per the following equation: [formula] where c is the mean of the number of stretches of the control group and b is the mean of the number of stretches of the treated group.\n(§17) The statistical significance between the lots may be ascertained with the Duncan-Kramer test, with p<0.05.\n(§18) 0.5% acetic acid induced contorsions in NMRI mice male (n = 10)", "units": {"% inhibition relative to control (contorsions)": "%"}, "values": [{"smiles": "O=C(O)C(c1ccccc1)n1cccc1", "note": "(racemic) [DL(±)-alpha-(N-pyrrolyl)-phenylacetic acid]", "% inhibition relative to control (contorsions)": 79.7}, {"smiles": "O=C(O)[C@@H](c1ccccc1)n1cccc1", "note": "[D(+)-alpha-(N-pyrrolyl)-phenylacetic acid]", "% inhibition relative to control (contorsions)": 70.9}, {"smiles": "O=C(O)[C@H](c1ccccc1)n1cccc1", "note": "[L(-)-alpha-(N-pyrrolyl)-phenylacetic acid]", "% inhibition relative to control (contorsions)": 76.2}, {"smiles": "O=C(O)C(c1ccc(O)cc1)n1cccc1", "note": "(racemic) [Dibenzylammonium DL(±)-alpha-(N-pyrrolyl)-p-hydroxy-phenylacetate]", "% inhibition relative to control (contorsions)": 72.3}, {"smiles": "CC(=O)Oc1ccccc1C(=O)O", "note": "[Acetylsalicylic acid, reference compound]", "% inhibition relative to control (contorsions)": 37.27}]}, {"test_system": "0.5% acetic acid induced contorsions in NMRI mice", "assay": "Peripheral analgesic activity: 0.5% acetic acid induced contorsions in NMRI mice", "assay_type": "in vivo", "conditions": "male NMRI mice, n = 10, 100 mg/kg p.o., 0.5% acetic acid i.p. after 30 minutes, observed half an hour; mean ± s.e.; control 27.1 ± 4.3; Duncan Kramer test p < 0.05", "protocol": "as §8, §9, §10, §11, §12, §13, §14, §15, §16, §17, §18", "values": [{"smiles": "O=C(O)C(c1ccccc1)n1cccc1", "note": "(racemic) [DL(±)-alpha-(N-pyrrolyl)-phenylacetic acid]", "No contorsions (X ± s.e.)": "5.5 ± 1.8"}, {"smiles": "O=C(O)[C@@H](c1ccccc1)n1cccc1", "note": "[D(+)-alpha-(N-pyrrolyl)-phenylacetic acid]", "No contorsions (X ± s.e.)": "7.9 ± 2.6"}, {"smiles": "O=C(O)[C@H](c1ccccc1)n1cccc1", "note": "[L(-)-alpha-(N-pyrrolyl)-phenylacetic acid]", "No contorsions (X ± s.e.)": "6.4 ± 1.9"}, {"smiles": "O=C(O)C(c1ccc(O)cc1)n1cccc1", "note": "(racemic) [Dibenzylammonium DL(±)-alpha-(N-pyrrolyl)-p-hydroxy-phenylacetate]", "No contorsions (X ± s.e.)": "7.5 ± 2.2"}, {"smiles": "CC(=O)Oc1ccccc1C(=O)O", "note": "[Acetylsalicylic acid, reference compound]", "No contorsions (X ± s.e.)": "17 ± 3.5"}]}, {"test_system": "0.5% acetic acid induced contorsions in NMRI mice", "assay": "Peripheral analgesic activity: 0.5% acetic acid induced contorsions in NMRI mice", "assay_type": "in vivo", "conditions": "male NMRI mice, n = 10, 100 mg/kg p.o., 0.5% acetic acid i.p.; control 10/10", "protocol": "as §8, §9, §10, §11, §12, §13, §14, §15, §16, §17, §18", "values": [{"smiles": "O=C(O)C(c1ccccc1)n1cccc1", "note": "(racemic) [DL(±)-alpha-(N-pyrrolyl)-phenylacetic acid]", "No mice with contorsions": "7/10"}, {"smiles": "O=C(O)[C@@H](c1ccccc1)n1cccc1", "note": "[D(+)-alpha-(N-pyrrolyl)-phenylacetic acid]", "No mice with contorsions": "8/10"}, {"smiles": "O=C(O)[C@H](c1ccccc1)n1cccc1", "note": "[L(-)-alpha-(N-pyrrolyl)-phenylacetic acid]", "No mice with contorsions": "8/10"}, {"smiles": "O=C(O)C(c1ccc(O)cc1)n1cccc1", "note": "(racemic) [Dibenzylammonium DL(±)-alpha-(N-pyrrolyl)-p-hydroxy-phenylacetate]", "No mice with contorsions": "9/10"}, {"smiles": "CC(=O)Oc1ccccc1C(=O)O", "note": "[Acetylsalicylic acid, reference compound]", "No mice with contorsions": "10/10"}]}]}
